SMILES strings stand for the structures. Converted amounts (≈) assume the structure as drawn.

What all share (test): In vitro antibacterial activity, two-fold agar-plate dilution method
Common to all, as to format: cell-based

For assay [1], the system named is Escherichia coli NIHJ JC-2. As to conditions: NIHJJC2, HI-agar, 37° C., 20 hours. The method, then:
(§1) (1) Test method In vitro antibacterial activity was determined by the two-fold agar-plate dilution method as described below. One loopful of an overnight culture of each test strain in Trypticase-soy broth was streaked on heart infusion agar (HI-agar) containing graded concentrations of the test compound and incubated at 37° C. for 20 hours. The minimal inhibitory concentration (MIC) was expressed in μg/ml.

The test system of a further assay is Klebsiella pneumoniae 20. Conditions: HI-agar, 37° C., 20 hours. The method, then:
as §1

A further assay has as its system Proteus mirabilis 18. As to conditions: HI-agar, 37° C., 20 hours. Here is the method:
as §1

In assay [2] the test system is Proteus vulgaris IAM-1025. As to conditions: IAM1025, HI-agar, 37° C., 20 hours. The method, then:
as §1

Assay [3] relates to Pseudomonus aeruginosa NCTC-10490. As to conditions: HI-agar, 37° C., 20 hours. The method, then:
as §1

For assay [4], the system named is Staphylococcus aureus 209P JC-1. As to conditions: HI-agar, 37° C., 20 hours. The method, then:
as §1

By MIC is commonly meant the lowest concentration that inhibits growth of the organism. For `CO/N=C(\C(=O)NC1C(=O)N2C(C(=O)O)=C(CSc3nncs3)CSC12)c1nc(N)sc1Br` (stereo not drawn) [compound 1, 7-[2-(2-amino-5-bromothiazol-4-yl)-2-methoxyiminoacetamido]-3-(1,3,4-thiadiazol-2-ylthiomethyl)-3-cephem-4-carboxylic acid (syn isomer)], the MIC in assay [1] came to 0.78 µg/mL (≈ 1.32 µM); in the assay on Klebsiella pneumoniae 20, 0.78 µg/mL (≈ 1.32 µM); with Proteus mirabilis 18 it was 0.78 µg/mL (≈ 1.32 µM); in assay [2], 6.25 µg/mL (≈ 10.5 µM); in assay [3] it was 3.13 µg/mL (≈ 5.28 µM); in assay [4], 1.56 µg/mL (≈ 2.63 µM).

As to `CO/N=C(\C(=O)NC1C(=O)N2C(C(=O)O)=C(CSc3nnc(C)s3)CSC12)c1nc(N)sc1Br` (stereo not drawn) [compound 2, 7-[2-(2-amino-5-bromothiazol-4-yl)-2-methoxyiminoacetamide]-3-(5-methyl-1,3,4-thiadiazol-2-ylthiomethyl)-3-cephem-4-carboxylic acid (syn isomer)], the MIC in assay [1] is 1.56 µg/mL (≈ 2.57 µM); in the assay with Klebsiella pneumoniae 20 it was 3.13 µg/mL (≈ 5.16 µM); against Proteus mirabilis 18 it was 6.25 µg/mL (≈ 10.3 µM); in assay [2], 12.5 µg/mL (≈ 20.6 µM); in assay [3] it was 6.25 µg/mL (≈ 10.3 µM); in assay [4] it was 3.13 µg/mL (≈ 5.16 µM).

Regarding `CO/N=C(\C(=O)NC1C(=O)N2C(C(=O)O)=C(CSc3nnnn3C)CSC12)c1nc(N)sc1Br` (stereo not drawn) [compound 3, 7-[2-(2-amino-5-bromothiazol-4-yl)-2-methoxyiminoacetamido]-3-(1-methyl-1H-tetrazol-5-ylthiomethyl)-3-cephem-4-carboxylic acid (syn isomer)], the MIC in assay [1] turned out to be 1.56 µg/mL (≈ 2.64 µM); against Klebsiella pneumoniae 20, 0.39 µg/mL (≈ 0.66 µM); in the assay on Proteus mirabilis 18, 3.13 µg/mL (≈ 5.3 µM); in assay [2] it was 12.5 µg/mL (≈ 21.2 µM); in assay [3], 3.13 µg/mL (≈ 5.3 µM); in assay [4], 3.13 µg/mL (≈ 5.3 µM).

`CO/N=C(\C(=O)NC1C(=O)N2C(C(=O)O)=C(COC(=O)c3ccccc3)CSC12)c1nc(N)sc1Br` (stereo not drawn) [compound 4, 7-[2-(2-amino-5-bromothiazol-4-yl)-2-methoxyiminoacetamido]-3-benzoyloxymethyl-3-cephem-4-carboxylic acid (syn isomer)]: the MIC in assay [1] is 6.25 µg/mL (≈ 10.5 µM); against Klebsiella pneumoniae 20 it was 1.56 µg/mL (≈ 2.62 µM); in the assay on Proteus mirabilis 18, 3.13 µg/mL (≈ 5.25 µM); in assay [2] it was 12.5 µg/mL (≈ 21 µM); in assay [3], 6.25 µg/mL (≈ 10.5 µM); in assay [4], 1.56 µg/mL (≈ 2.62 µM).

As for `CO/N=C(\C(=O)NC1C(=O)N2C(C(=O)O)=C(CSc3nncs3)CSC12)c1nc(N)sc1Cl` (stereo not drawn) [compound 5, 7-[2-(2-amino-5-chlorothiazol-4-yl)-2-methoxyiminoacetamido]-3-(1,3,4-thiadiazol-2-ylthiomethyl)-3-cephem-4-carboxylic acid (syn isomer)], the MIC in assay [1] was 1.56 µg/mL (≈ 2.85 µM); with Klebsiella pneumoniae 20, 0.39 µg/mL (≈ 0.712 µM); against Proteus mirabilis 18 it was 0.78 µg/mL (≈ 1.42 µM); in assay [2], 1.56 µg/mL (≈ 2.85 µM); in assay [3], 1.56 µg/mL (≈ 2.85 µM); in assay [4], 3.13 µg/mL (≈ 5.71 µM).

The values above are taken from US4729991A, “Cephem compounds” (Fujisawa Pharmaceutical Co., Ltd., priority 1978, dated 1988).
